From publication PMC5355835 (Chemical Science, 2016)

Experiments:
[1] = Stability assay under reductive conditions; assay type: physicochemical; conditions: PBS buffer with 1.0 mM L-glutathione, pH 7
[2] = Stability assay in human serum; assay type: in vitro ADME; conditions: male, 37 °C
[3] = Temperature and pH stability assay in phosphate buffers; assay type: physicochemical; conditions: 50 mM phosphate buffer; for half-life at 0.1 mg/mL: phosphate buffer

In the case of `CC[C@H](C)[C@@H]1NC(=O)[C@H](Cc2ccc(O)cc2)NC(=O)[C@@H](N)CSSC[C@@H](C(=O)N2CCC[C@H]2C(=O)N[C@@H](CC(C)C)C(=O)NCC(N)=O)NC(=O)[C@H](CC(N)=O)NC(=O)[C@H](CCC(N)=O)NC1=O` [OXT, oxytocin], the half-life at 9.9 µM [1] is reported as 8 h, the half-life at 0.45 mM [2] is reported as 28.8 h and the half-life ([3]; pH 2.0, 40 °C) is reported as 14 ± 0.9 days. The half-life ([3]; pH 4.5, 40 °C) was 121 ± 6.2 days, the half-life at 0.1 mg/mL ([3]; pH 2, half-life, pH 2.0, 55 °C) was 76.8 h and the half-life at 0.1 mg/mL ([3]; pH 4.5, half-life, pH 4.5, 55 °C) was 432 h. For the same compound, the half-life at 0.1 mg/mL ([3]; pH 7, half-life, pH 7.0, 40 °C) was 173 h, the half-life at 0.1 mg/mL ([3]; pH 7, half-life, pH 7.0, 55 °C) was 48 h and the half-life at 0.1 mg/mL ([3]; pH 9, half-life, pH 9.0, 40 °C) was 93.6 h. The half-life at 0.1 mg/mL ([3]; pH 9, half-life, pH 9.0, 55 °C) was 21.6 h.
